# According to ChEMBL document CHEMBL3885881, “DrugMatrix”:
# Species: Rattus norvegicus
# Assay: DrugMatrix - Regimen: Daily Repeat
# Type: toxicity, organism-based, Sprague-Dawley
# Design: regimen Daily Repeat, gender Male, age 6-8 weeks
# Settings: in vivo, po, route oral GAVAGE; for ABSOLUTE BASOPHIL / ABSOLUTE EOSINOPHIL / ABSOLUTE LYMPHOCYTE / ABSOLUTE MONOCYTE / ABSOLUTE SEGMENTED NEUTROPHIL / BASOPHIL / EOSINOPHIL / ERYTHROCYTE COUNT / HEMATOCRIT / HEMOGLOBIN / LEUKOCYTE COUNT / LYMPHOCYTE / MEAN CORPUSCULAR HEMOGLOBIN / MEAN CORPUSCULAR HEMOGLOBIN CONCENTRATION / MEAN CORPUSCULAR VOLUME / MONOCYTE / NEUTROPHIL / NUCLEATED RED BLOOD CELLS / PLATELET COUNT: tissue Blood; for ALANINE AMINOTRANSFERASE / ALBUMIN / ALKALINE PHOSPHATASE / ASPARTATE AMINOTRANSFERASE / BLOOD UREA NITROGEN / CARBON DIOXIDE / CHLORIDE / CHOLESTEROL / CREATINE PHOSPHOKINASE / CREATININE / GLUCOSE / LACTATE DEHYDROGENASE / LIPASE / PHOSPHORUS / POTASSIUM / SODIUM / TOTAL BILIRUBIN / TOTAL PROTEIN / URIC ACID: tissue Plasma
# [1] = 0 mg/kg, 72 h, dose level Control, time 3 day, […]
# [2] = 0 mg/kg, 72 h, dose level Control, time 3 day, vehicle 100 % WATER
# [3] = 0 mg/kg, 120 h, dose level Control, time 5 day, […]
# [4] = 0 mg/kg, 120 h, dose level Control, time 5 day, vehicle 100 % WATER
# [5] = 20 mg/kg, 72 h, dose level Low, time 3 day, […]
# [6] = 20 mg/kg, 120 h, dose level Low, time 5 day, […]
smiles,measurement,setting,value
Cn1cnc([N+](=O)[O-])c1Sc1ncnc2nc[nH]c12 [AZATHIOPRINE],ABSOLUTE BASOPHIL,[1],0 CELLS/uL
same,ABSOLUTE EOSINOPHIL,[1],0 CELLS/uL
same,ABSOLUTE LYMPHOCYTE,[1],7601 CELLS/uL
same,ABSOLUTE MONOCYTE,[1],354.33 CELLS/uL
same,ABSOLUTE SEGMENTED NEUTROPHIL,[1],744.67 CELLS/uL
same,BASOPHIL,[1],0%
same,EOSINOPHIL,[1],0%
same,ERYTHROCYTE COUNT,[1],5.03 x10E6/uL
same,HEMATOCRIT,[1],33.7%
same,HEMOGLOBIN,[1],13.43 G/DL
same,LEUKOCYTE COUNT,[1],8.7 x10E3/uL
same,LYMPHOCYTE,[1],86.33%
same,MEAN CORPUSCULAR HEMOGLOBIN,[1],26.7 pg
same,MEAN CORPUSCULAR HEMOGLOBIN CONCENTRATION,[1],39.83 G/DL
same,MEAN CORPUSCULAR VOLUME,[1],67 fL
same,MONOCYTE,[1],4.67%
same,NEUTROPHIL,[1],9%
same,NUCLEATED RED BLOOD CELLS,[1],0 /100WBC
same,PLATELET COUNT,[1],1151 x10E3/uL
same,ABSOLUTE EOSINOPHIL,[2],91.5 CELLS/uL
same,ABSOLUTE LYMPHOCYTE,[2],14108.83 CELLS/uL
same,ABSOLUTE MONOCYTE,[2],81 CELLS/uL
same,ABSOLUTE SEGMENTED NEUTROPHIL,[2],818.67 CELLS/uL
same,EOSINOPHIL,[2],0.67%
same,ERYTHROCYTE COUNT,[2],5.56 x10E6/uL
same,HEMATOCRIT,[2],34.5%
same,HEMOGLOBIN,[2],13.45 G/DL
same,LEUKOCYTE COUNT,[2],15.1 x10E3/uL
same,LYMPHOCYTE,[2],93%
same,MEAN CORPUSCULAR HEMOGLOBIN,[2],24.2 pg
same,MEAN CORPUSCULAR HEMOGLOBIN CONCENTRATION,[2],38.98 G/DL
same,MEAN CORPUSCULAR VOLUME,[2],62.07 fL
same,MONOCYTE,[2],0.5%
same,NEUTROPHIL,[2],5.83%
same,PLATELET COUNT,[2],1193.33 x10E3/uL
same,ALANINE AMINOTRANSFERASE,[1],97.67 u/L
same,ALBUMIN,[1],4.07 G/DL
same,ALKALINE PHOSPHATASE,[1],607.67 u/L
same,ASPARTATE AMINOTRANSFERASE,[1],101 u/L
same,BLOOD UREA NITROGEN,[1],13.33 mg/dL
same,CARBON DIOXIDE,[1],36 mmol/L
same,CHLORIDE,[1],99.67 MEQ/L
same,CHOLESTEROL,[1],75.67 mg/dL
same,CREATINE PHOSPHOKINASE,[1],279.67 u/L
same,CREATININE,[1],0.16 mg/dL
same,GLUCOSE,[1],164 mg/dL
same,LACTATE DEHYDROGENASE,[1],115 u/L
same,LIPASE,[1],12.67 u/L
same,PHOSPHORUS,[1],8.77 mg/dL
same,POTASSIUM,[1],5.79 MEQ/L
same,SODIUM,[1],142.83 MEQ/L
same,TOTAL BILIRUBIN,[1],0.27 mg/dL
same,TOTAL PROTEIN,[1],5.8 G/DL
same,URIC ACID,[1],0.67 mg/dL
same,ALANINE AMINOTRANSFERASE,[2],60.33 u/L
same,ALBUMIN,[2],4 G/DL
same,ALKALINE PHOSPHATASE,[2],334.83 u/L
same,ASPARTATE AMINOTRANSFERASE,[2],74.5 u/L
same,BLOOD UREA NITROGEN,[2],13.5 mg/dL
same,CARBON DIOXIDE,[2],30.33 mmol/L
same,CHLORIDE,[2],98.33 MEQ/L
same,CHOLESTEROL,[2],71.17 mg/dL
same,CREATINE PHOSPHOKINASE,[2],212 u/L
same,CREATININE,[2],0.21 mg/dL
same,GLUCOSE,[2],173.17 mg/dL
same,LACTATE DEHYDROGENASE,[2],101.5 u/L
same,LIPASE,[2],24.17 u/L
same,PHOSPHORUS,[2],10.87 mg/dL
same,POTASSIUM,[2],6.06 MEQ/L
same,SODIUM,[2],140.58 MEQ/L
same,TOTAL BILIRUBIN,[2],0.17 mg/dL
same,TOTAL PROTEIN,[2],5.9 G/DL
same,URIC ACID,[2],1.23 mg/dL
same,ABSOLUTE BASOPHIL,[3],0 CELLS/uL
same,ABSOLUTE EOSINOPHIL,[3],0 CELLS/uL
same,ABSOLUTE LYMPHOCYTE,[3],4426.33 CELLS/uL
same,ABSOLUTE MONOCYTE,[3],102.67 CELLS/uL
same,ABSOLUTE SEGMENTED NEUTROPHIL,[3],337.67 CELLS/uL
same,BASOPHIL,[3],0%
same,EOSINOPHIL,[3],0%
same,ERYTHROCYTE COUNT,[3],5.31 x10E6/uL
same,HEMATOCRIT,[3],32.5%
same,HEMOGLOBIN,[3],13.17 G/DL
same,LEUKOCYTE COUNT,[3],4.87 x10E3/uL
same,LYMPHOCYTE,[3],90.33%
same,MEAN CORPUSCULAR HEMOGLOBIN,[3],24.93 pg
same,MEAN CORPUSCULAR HEMOGLOBIN CONCENTRATION,[3],40.67 G/DL
same,MEAN CORPUSCULAR VOLUME,[3],61.33 fL
same,MONOCYTE,[3],2.33%
same,NEUTROPHIL,[3],7.33%
same,NUCLEATED RED BLOOD CELLS,[3],0.33 /100WBC
same,PLATELET COUNT,[3],848.33 x10E3/uL
same,ABSOLUTE EOSINOPHIL,[4],34.5 CELLS/uL
same,ABSOLUTE LYMPHOCYTE,[4],8181 CELLS/uL
same,ABSOLUTE MONOCYTE,[4],82.67 CELLS/uL
same,ABSOLUTE SEGMENTED NEUTROPHIL,[4],435.17 CELLS/uL
same,EOSINOPHIL,[4],0.5%
same,HEMATOCRIT,[4],33.83%
same,HEMOGLOBIN,[4],13.37 G/DL
same,LEUKOCYTE COUNT,[4],8.73 x10E3/uL
same,LYMPHOCYTE,[4],93.5%
same,MEAN CORPUSCULAR HEMOGLOBIN,[4],25.2 pg
same,MEAN CORPUSCULAR HEMOGLOBIN CONCENTRATION,[4],39.53 G/DL
same,MEAN CORPUSCULAR VOLUME,[4],63.73 fL
same,MONOCYTE,[4],1%
same,NEUTROPHIL,[4],5%
same,NUCLEATED RED BLOOD CELLS,[4],0 /100WBC
same,PLATELET COUNT,[4],1057.33 x10E3/uL
same,ALANINE AMINOTRANSFERASE,[3],59.67 u/L
same,ALBUMIN,[3],3.87 G/DL
same,ALKALINE PHOSPHATASE,[3],452 u/L
same,ASPARTATE AMINOTRANSFERASE,[3],81.33 u/L
same,BLOOD UREA NITROGEN,[3],13.67 mg/dL
same,CARBON DIOXIDE,[3],26.33 mmol/L
same,CHLORIDE,[3],103.67 MEQ/L
same,CHOLESTEROL,[3],65.67 mg/dL
same,CREATINE PHOSPHOKINASE,[3],355.33 u/L
same,CREATININE,[3],0.14 mg/dL
same,GLUCOSE,[3],171.33 mg/dL
same,LACTATE DEHYDROGENASE,[3],118 u/L
same,LIPASE,[3],11.33 u/L
same,PHOSPHORUS,[3],11.13 mg/dL
same,POTASSIUM,[3],5.18 MEQ/L
same,SODIUM,[3],143.17 MEQ/L
same,TOTAL BILIRUBIN,[3],0.2 mg/dL
same,TOTAL PROTEIN,[3],5.87 G/DL
same,URIC ACID,[3],0.63 mg/dL
same,ALANINE AMINOTRANSFERASE,[4],54.33 u/L
same,ALBUMIN,[4],4.07 G/DL
same,ALKALINE PHOSPHATASE,[4],308.67 u/L
same,ASPARTATE AMINOTRANSFERASE,[4],83.17 u/L
same,BLOOD UREA NITROGEN,[4],14 mg/dL
same,CARBON DIOXIDE,[4],34 mmol/L
same,CHLORIDE,[4],98 MEQ/L
same,CHOLESTEROL,[4],71.33 mg/dL
same,CREATINE PHOSPHOKINASE,[4],266.5 u/L
same,CREATININE,[4],0.27 mg/dL
same,GLUCOSE,[4],133 mg/dL
same,LACTATE DEHYDROGENASE,[4],127 u/L
same,LIPASE,[4],11.67 u/L
same,PHOSPHORUS,[4],10.6 mg/dL
same,POTASSIUM,[4],6.17 MEQ/L
same,SODIUM,[4],142.68 MEQ/L
same,TOTAL BILIRUBIN,[4],0.15 mg/dL
same,TOTAL PROTEIN,[4],6.03 G/DL
same,URIC ACID,[4],0.75 mg/dL
same,ABSOLUTE BASOPHIL,[5],0 CELLS/uL
same,ABSOLUTE EOSINOPHIL,[5],0 CELLS/uL
same,ABSOLUTE LYMPHOCYTE,[5],5839.67 CELLS/uL
same,ABSOLUTE MONOCYTE,[5],204 CELLS/uL
same,ABSOLUTE SEGMENTED NEUTROPHIL,[5],256.33 CELLS/uL
same,BASOPHIL,[5],0%
same,EOSINOPHIL,[5],0%
same,ERYTHROCYTE COUNT,[5],4.55 x10E6/uL
same,HEMATOCRIT,[5],29%
same,HEMOGLOBIN,[5],11.47 G/DL
same,LEUKOCYTE COUNT,[5],6.3 x10E3/uL
same,LYMPHOCYTE,[5],93%
same,MEAN CORPUSCULAR HEMOGLOBIN,[5],25.37 pg
same,MEAN CORPUSCULAR HEMOGLOBIN CONCENTRATION,[5],39.7 G/DL
same,MEAN CORPUSCULAR VOLUME,[5],64 fL
same,MONOCYTE,[5],3%
same,NEUTROPHIL,[5],4%
same,NUCLEATED RED BLOOD CELLS,[5],0.33 /100WBC
same,PLATELET COUNT,[5],1104.33 x10E3/uL
same,ALANINE AMINOTRANSFERASE,[5],61 u/L
same,ALBUMIN,[5],4.2 G/DL
same,ALKALINE PHOSPHATASE,[5],326.33 u/L
same,ASPARTATE AMINOTRANSFERASE,[5],82 u/L
same,BLOOD UREA NITROGEN,[5],14 mg/dL
same,CARBON DIOXIDE,[5],39.33 mmol/L
same,CHLORIDE,[5],106.33 MEQ/L
same,CHOLESTEROL,[5],92.67 mg/dL
same,CREATINE PHOSPHOKINASE,[5],229 u/L
same,CREATININE,[5],0.21 mg/dL
same,GLUCOSE,[5],156.33 mg/dL
same,LACTATE DEHYDROGENASE,[5],82.67 u/L
same,LIPASE,[5],11 u/L
same,PHOSPHORUS,[5],9.27 mg/dL
same,POTASSIUM,[5],5.07 MEQ/L
same,SODIUM,[5],137.8 MEQ/L
same,TOTAL BILIRUBIN,[5],0.1 mg/dL
same,TOTAL PROTEIN,[5],6.23 G/DL
same,URIC ACID,[5],0.5 mg/dL
same,ABSOLUTE BASOPHIL,[6],0 CELLS/uL
same,ABSOLUTE EOSINOPHIL,[6],0 CELLS/uL
same,ABSOLUTE LYMPHOCYTE,[6],5125.67 CELLS/uL
